Where two headings read alike, the source gives them in different places.
Experiments:
Type in all cases: cell-based
[1] = tested on: K. pneumoniae NVT1001 gyrA/parC and gyrA/parC/ramR mutants and revertants; test: Etest MIC of quinolones, gyrA/parC and gyrA/parC/ramR mutants and their revertants (Table 11); details: Klebsiella pneumoniae
Excerpt: The allelic-exchange method was used to restore the wild-type gene in the K. pneumoniae NVT1001 mutants with constructed chromosome-mediated resistance mechanisms, as described by Tsai et al.^19 Briefly, a DNA fragment of the entire wild-type gene sequence along with flanking regions was amplified from K. pneumoniae NVT1001 using PCR with specific primers. The resulting PCR fragment was digested and then cloned into pUT-KB. For homologous recombination, this plasmid was transformed into E. coli S17-1 λpir^23 via electroporation and mobilized into the K. pneumoniae NVT1001 mutant via conjugation. […] After incubation in 20 mL BHI broth for 6 hours at 37° C. in the absence of kanamycin, the fully grown cultures were spread onto LB agar plates supplemented with 10% sucrose. After the double crossover occurred, the sucrose-resistant and kanamycin-susceptible colonies were selected, and the restoration of the wild-type gene was confirmed via DNA sequencing.
(§1) The MICs of antibiotics were determined using the Etest (Biodisk AB, Sweden) according to the manufacturer's instructions. The MICs from the Etest, which fall between standard two-fold dilutions, were rounded up to the next highest two-fold value. The MICs of ceftazidime and cefotaxime against K. pneumoniae NVT1001 harbouring the pACYC177 plasmid with blaOXA-48 were further determined using a broth microdilution test according to the recommendations of the CLSI,^25 and the results were interpreted according to the breakpoints established by the CLSI in 2017.^25 Meanwhile, due to the lack of CLSI breakpoints in 2016 and 2017, the results for cephalothin were interpreted according to the breakpoints established by the CLSI in 2015,^26 and the results for moxifloxacin were interpreted according to the breakpoints established by the EUCAST in 2017.^27

[2] = tested on: K. pneumoniae NVT1001 strains with QnrB, QnrS or AAC(6′)-Ib-cr plasmids; test: Etest MIC of quinolones, GyrA/ParC mutations, ΔramR and/or QnrB, QnrS or AAC(6′)-Ib-cr (Table 12); details: Klebsiella pneumoniae
Method: DNA fragments of the resistance genes along with their flanking regions were amplified from clinical plasmids via PCR with specific primer pairs. The resulting PCR fragments were digested and then cloned into the plasmid pACYC177 or pACYC184. The resulting plasmids were then transformed into K. pneumoniae strain NVT1001 via electroporation. The recombinant bacteria were plated onto LB agar plates containing kanamycin (50 mg/L) or chloramphenicol (50 mg/L), and the presence of the cloned gene was confirmed via PCR and DNA sequencing.
as §1

[3] = tested on: A. baumannii KW1 and its GyrA/ParC mutants; test: Etest MIC of quinolones, GyrA and/or ParC mutations (Table 17); details: Acinetobacter baumannii
Excerpt: DNA fragments of the entire adeR, adeS, gyrA and parC along with their flanking regions were amplified from A. baumannii KW1 using PCR with specific primer pairs and then cloned into plasmid pUT-KB. The QuikChange site-directed mutagenesis kit (Stratagene) was used to generate mutations in the adeR, adeS, gyrA and parC genes in the plasmids using the methods described by the manufacturer. For homologous recombination, plasmids containing mutations in the adeR, adeS, gyrA or parC gene were transformed into E. coli S17-1 λpir^23 via electroporation and mobilized into A. baumannii KW1 via conjugation. Single-crossover strains were selected from Luria-Bertani (LB) plates supplemented with cefotaxime (1 μg/ml) and kanamycin ([…]), as the growth of non-A. baumannii contaminants is suppressed by cefotaxime (1 μg/ml). The kanamycin-resistant transconjugants were selected and the insertion of plasmids was verified via PCR. After incubation in 20 ml brain heart infusion (BHI) broth for 6 hours in the absence of kanamycin at 37° C., the fully grown cultures were spread onto LB plates supplemented with 10% sucrose. After the double crossover occurred, the sucrose-resistant and kanamycin-susceptible colonies were selected, and the gene mutations were confirmed via PCR.
as §1

Measured: MIC

COc1c(N2C[C@@H]3CCCN[C@@H]3C2)c(F)cc2c(=O)c(C(=O)O)cn(C3CC3)c12 [Moxifloxacin, moxifloxacin]
4 µg/mL: [1]; S83I/D87N/S80I::N87D revertant, read-out: MIC | [3]; S83L/G78C mutant
0.5 µg/mL: [1]; S83F/D87N/S80I::N87D revertant, read-out: MIC | [1]; S83F/D87N/S80I::N87D/I80S revertant, read-out: MIC | [1]; S83L/D87N/S80I::N87D/I80S revertant, read-out: MIC | [1]; S83Y/D87N/S80I::I80S revertant, read-out: MIC | [1]; S83Y/D87N/S80I::N87D revertant, read-out: MIC | [1]; S83Y/D87N/S80I::N87D/I80S revertant, read-out: MIC | [1]; ΔramR/S83I/D87N/S80I:: ramR/I83S/I80S revertant
2 µg/mL: [2]; QnrB on pACYC177, WT (NVT1001), read-out: MIC
8 µg/mL: [1]; ΔramR/S83I/D87N/S80I::N87D/I80S revertant | [2]; AAC(6′)-Ib-cr on pACYC177, S83I/S80I mutant | [2]; QnrB on pACYC177, S83I mutant | [2]; QnrS on pACYC177, S83I mutant | [2]; no supplemental plasmid, S83I/S80I mutant | [2]; no supplemental plasmid, ΔramR/S83I mutant | [3]; S83L/S80W mutant
6 µg/mL: [3]; S83L/E84K mutant | [3]; S83L/S80L mutant | [3]; S83L/S80Y mutant
1 µg/mL: [1]; S83F/D87N/S80I::I80S revertant, read-out: MIC | [1]; S83I/D87N/S80I::I80S revertant, read-out: MIC | [1]; S83I/D87N/S80I::N87D/I80S revertant, read-out: MIC | [1]; S83L/D87N/S80I::I80S revertant, read-out: MIC | [1]; S83L/D87N/S80I::N87D revertant, read-out: MIC | [1]; ΔramR/S83I/D87N/S80I:: ramR/I83S revertant | [1]; ΔramR/S83I/D87N/S80I::I83S/N87D/I80S revertant | [2]; AAC(6′)-Ib-cr on pACYC177, S83I mutant | [2]; AAC(6′)-Ib-cr on pACYC177, ΔramR mutant | [2]; QnrS on pACYC177, WT (NVT1001), read-out: MIC | [2]; no supplemental plasmid, S83I mutant | [2]; no supplemental plasmid, ΔramR mutant
0.75 µg/mL: [3]; S83L mutant
0.125 µg/mL: [1]; S83F/D87N/S80I::F83S/N87D/I80S revertant, read-out: MIC | [1]; S83I/D87N/S80I::I83S/N87D/I80S revertant, read-out: MIC | [1]; S83L/D87N/S80I::L83S/N87D/I80S revertant, read-out: MIC | [1]; S83Y/D87N/S80I::Y83S/N87D/I80S revertant, read-out: MIC | [1]; ΔramR/S83I/D87N/S80I::ramR/I83S/N87D/I80S | [2]; AAC(6′)-Ib-cr on pACYC177, WT (NVT1001), read-out: MIC | [2]; no supplemental plasmid, WT (NVT1001), read-out: MIC
16 µg/mL: [2]; AAC(6′)-Ib-cr on pACYC177, ΔramR/S83I mutant
32 µg/mL: [1]; S83F/D87N/S80I mutant | [1]; S83L/D87N/S80I mutant | [1]; S83Y/D87N/S80I mutant
0.25 µg/mL: [1]; ΔramR/S83I/D87N/S80I:: ramR/I83S/N87D revertant | [3]; S80L mutant
> 32 µg/mL: [1]; S83I/D87N/S80I mutant | [1]; ΔramR/S83I/D87N/S80I mutant | [1]; ΔramR/S83I/D87N/S80I::N87D revertant | [2]; AAC(6′)-Ib-cr on pACYC177, S83I/D87N/S80I mutant | [2]; AAC(6′)-Ib-cr on pACYC177, ΔramR/S83I/D87N/S80I mutant | [2]; AAC(6′)-Ib-cr on pACYC177, ΔramR/S83I/S80I mutant | [2]; QnrB on pACYC177, S83I/D87N/S80I mutant | [2]; QnrB on pACYC177, S83I/S80I mutant | [2]; QnrB on pACYC177, ΔramR mutant | [2]; QnrB on pACYC177, ΔramR/S83I mutant | [2]; QnrB on pACYC177, ΔramR/S83I/D87N/S80I mutant | [2]; QnrB on pACYC177, ΔramR/S83I/S80I mutant | [2]; QnrS on pACYC177, S83I/D87N/S80I mutant | [2]; QnrS on pACYC177, S83I/S80I mutant | [2]; QnrS on pACYC177, ΔramR mutant | [2]; QnrS on pACYC177, ΔramR/S83I mutant | [2]; QnrS on pACYC177, ΔramR/S83I/D87N/S80I mutant | [2]; QnrS on pACYC177, ΔramR/S83I/S80I mutant | [2]; no supplemental plasmid, S83I/D87N/S80I mutant | [2]; no supplemental plasmid, ΔramR/S83I/D87N/S80I mutant | [2]; no supplemental plasmid, ΔramR/S83I/S80I mutant
0.19 µg/mL: [3]; E84K mutant | [3]; G78C mutant | [3]; KW1, read-out: MIC | [3]; S80W mutant | [3]; S80Y mutant
